Assay results reported in patent US12358915B2, “METTL3 inhibitory compounds” (STORM THERAPEUTICS LTD., priority 2019, dated 2025).
Read-outs that look alike come from different tables or passages of the source.

Tests used:
[1] = biological target: T1, METTL3/14 (Homo sapiens, UniProt Q86U44); assay: METTL3/14 methyltransferase assay (METTL3_14 RFMS, RapidFire mass spectrometry); assay type: biochemical; conditions: read-out: METTL3_14 RFMS IC50;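 also: recombinant His-tagged METTL3 with FLAG-tagged METTL14 from baculovirus, SAH product quantified by mass spectrometry against isotope-labelled internal standards, 60 min at room temperature, scaled between no-RNA and DMSO-only wells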
T1 construct: The enzyme used was full-length his-tagged METTL3; His; made in house
T1 sequence (Q86U44 whole entry): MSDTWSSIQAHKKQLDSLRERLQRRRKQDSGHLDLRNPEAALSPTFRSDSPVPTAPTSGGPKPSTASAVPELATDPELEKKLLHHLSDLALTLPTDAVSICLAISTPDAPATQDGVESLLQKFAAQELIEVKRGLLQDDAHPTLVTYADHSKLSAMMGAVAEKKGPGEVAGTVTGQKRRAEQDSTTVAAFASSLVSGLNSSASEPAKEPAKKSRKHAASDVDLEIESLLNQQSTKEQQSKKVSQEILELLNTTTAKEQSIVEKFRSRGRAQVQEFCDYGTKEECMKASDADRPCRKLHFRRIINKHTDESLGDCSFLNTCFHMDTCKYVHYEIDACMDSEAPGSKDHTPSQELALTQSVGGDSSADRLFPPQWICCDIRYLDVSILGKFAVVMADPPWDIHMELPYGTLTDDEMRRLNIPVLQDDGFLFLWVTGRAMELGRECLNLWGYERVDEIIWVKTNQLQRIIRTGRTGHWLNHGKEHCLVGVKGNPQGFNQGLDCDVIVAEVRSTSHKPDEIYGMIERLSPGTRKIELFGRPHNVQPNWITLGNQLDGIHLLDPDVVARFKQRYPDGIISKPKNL
T1 sequence (Q9HCE5 whole entry partner): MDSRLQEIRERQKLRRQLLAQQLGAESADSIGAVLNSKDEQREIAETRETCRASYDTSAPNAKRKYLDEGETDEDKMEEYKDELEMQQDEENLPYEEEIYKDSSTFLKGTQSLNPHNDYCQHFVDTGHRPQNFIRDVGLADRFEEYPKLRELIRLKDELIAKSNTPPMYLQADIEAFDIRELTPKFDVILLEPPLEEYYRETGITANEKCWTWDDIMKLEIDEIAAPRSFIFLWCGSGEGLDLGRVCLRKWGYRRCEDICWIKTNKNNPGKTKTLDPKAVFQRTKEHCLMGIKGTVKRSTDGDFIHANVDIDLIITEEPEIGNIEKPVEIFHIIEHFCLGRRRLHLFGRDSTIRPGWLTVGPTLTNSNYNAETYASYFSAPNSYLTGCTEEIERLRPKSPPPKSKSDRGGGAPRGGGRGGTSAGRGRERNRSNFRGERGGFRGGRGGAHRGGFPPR

[2] = system: MOLM-13 cells; assay: MOLM13 CTG - analysis of cell proliferation (Cell Titre Glo); assay type: cell-based; conditions: Homo sapiens, geometric mean, read-out: CTG MOLM13 cells IC50 GEOMEAN
Experimental: MOLM-13 or MOLM-14 cells were plated, in suspension, in 24 well tissue culture plates at final concentration of 200,000/ml, with or without 50 ng/ml IFNγ. […] Cells were incubated for 4 days at 37° C. at which point 600 μl of cell suspension was removed for Mass spectrometry analysis of m6A. 600 μl of fresh media containing the appropriate concentration of METTL3 inhibitor/IFNγ was added to remaining cell suspensions. Cells where then cultured for a further 7 days, cell suspension was sampled for analysis of proliferation and Cell surface markers periodically.
At regular time points (4, 5, 6 &7) days cells were mixed to maintain a homogenous cell suspension. 25 μl of this cell suspension was removed and added to a white 384 well plate, 25 μl of Cell Titre Glo reagent (Promega) was added, and incubated for 10 mins at room temperature before measurement of luminescence intensity, as per the manufacturers instructions.

[3] = system: Caov-3 cells; assay: Caov3 CTG assay - proliferation assay; assay type: cell-based; conditions: Homo sapiens, 120 hours treatment, 30 μM top concentration, CellTiter-Glo, geometric mean, read-out: CTG Caov3 cells IC50 GEOMEAN
Experimental: Upon treatment, Coav-3 cells were incubated for 10 min at RT with the CellTiter-Glo reagent (G7571, Promega). Measurement of the luminescence signal was performed on a microplate reader (Ensight, PerkinElmer).

[4] = 5 nM METTL3/14, 0.2 μM RNA substrate, 0.5 μM SAM, lower limit of the assay IC50=5 nM, Compounds 266-351

Row | Compound | IC50 [1, 4] | IC50 [2] | IC50 [1] | IC50 ([1]; 5 nM METTL3/14, 0.2 μM RNA substrate, 0.5 μM SAM, lower limit of the assay IC50=5 nM, Compounds 63-265) | IC50 [3]
1 | COc1cc(-c2cn(Cc3cn4cc(CNCC5(O)CCC5)ccc4n3)nn2)c2cn[nH]c2c1 [Example 269, 1-[[[2-[[4-(6-methoxy-1H-indazol-4-yl)triazol-1-yl]methyl]imidazo[1,2-a]pyridin-6-yl]methylamino]methyl]cyclobutanol] | 8.05 nM | 1390 nM | – | – | 692 nM
2 | COc1ccc2[nH]ncc2c1-c1cn(Cc2cn3cc(CNCC4CCC4)ccc3n2)nn1 [Example 271, N-(cyclobutylmethyl)-1-[2-[[4-(5-methoxy-1H-indazol-4-yl)triazol-1-yl]methyl]imidazo[1,2-a]pyridin-6-yl]methanamine] | 6.1 nM | 1170 nM | – | – | 558 nM
3 | c1cc(-c2cn(Cc3cn4cc(CNCC5CCC5)ccc4n3)nn2)c2cn[nH]c2c1 [Example 327, N-(cyclobutylmethyl)-1-[2-[[4-(1H-indazol-4-yl)triazol-1-yl]methyl]imidazo[1,2-a]pyridin-6-yl]methanamine] | 5.78 nM | 1620 nM | – | – | 572 nM
4 | COc1cc(-c2cn(Cc3cn4cc(CNCC5(OC)CCC5)ccc4n3)nn2)c2cn[nH]c2c1 [Example 343, N-[(1-methoxycyclobutyl)methyl]-1-[2-[[4-(6-methoxy-1H-indazol-4-yl)triazol-1-yl]methyl]imidazo[1,2-a]pyridin-6-yl]methanamine] | 6.1 nM | 930 nM | – | – | 554 nM
5 | N#Cc1cc(-c2cn(Cc3cn4cc(CNCC5CCC5)ccc4n3)nn2)c2cn[nH]c2c1 [Example 338, 4-{1-[(6-{[(cyclobutylmethyl)amino]methyl}imidazo[1,2-a]pyridin-2-yl)methyl]-1H-1,2,3-triazol-4-yl}-1H-indazole-6-carbonitrile] | 7.49 nM | 1190 nM | – | – | 1110 nM

Continued, in another order:

Row | IC50 [1, 4] | IC50 [2] | IC50 [1] | IC50 ([1]; 5 nM METTL3/14, 0.2 μM RNA substrate, 0.5 μM SAM, lower limit of the assay IC50=5 nM, Compounds 63-265) | Compound | IC50 [3]
6 | 6.72 nM | 3680 nM | – | – | Fc1ccc(-c2cn(Cc3cn4cc(CNCC5CCCCC5)ccc4n3)nn2)c2cn[nH]c12 [Example 307, N-(cyclohexylmethyl)-1-[2-[[4-(7-fluoro-1H-indazol-4-yl)triazol-1-yl]methyl]imidazo[1,2-a]pyridin-6-yl]methanamine] | 1770 nM
7 | – | 431 nM | ≤ 3.63 nM | – | COc1cc(-c2cn(Cc3cn4cc(CNCC5CCC5)ccc4n3)nn2)c2cn[nH]c2c1 [Example 270, N-(cyclobutylmethyl)-1-[2-[[4-(6-methoxy-1H-indazol-4-yl)triazol-1-yl]methyl]imidazo[1,2-a]pyridin-6-yl]methanamine] | 161 nM
8 | 10.1 nM | 3070 nM | – | – | c1cc(-c2cn(Cc3cn4cc(CNCC5CCC5)ccc4n3)cn2)c2cn[nH]c2c1 [Example 339, N-(cyclobutylmethyl)-1-[2-[[4-(1H-indazol-4-yl)imidazol-1-yl]methyl]imidazo[1,2-a]pyridin-6-yl]methanamine] | 849 nM
9 | – | 629 nM | ≤ 4.35 nM | – | Clc1cc(-c2cn(Cc3cn4cc(CNCC5CCC5)ccc4n3)nn2)c2cn[nH]c2c1 [Example 302, 1-[2-[[4-(6-chloro-1H-indazol-4-yl)triazol-1-yl]methyl]imidazo[1,2-a]pyridin-6-yl]-N-(cyclobutylmethyl)methanamine] | 211 nM
10 | – | 1820 nM | – | 6.25 nM | O=C(NCc1cn2cc(CNCC3CCC3)ccc2n1)c1cc(=O)n2ccccc2n1 [Example 212, N-[[6-[(cyclobutylmethylamino)methyl]imidazo[1,2-a]pyridin-2-yl]methyl]-4-oxo-pyrido[1,2-a]pyrimidine-2-carboxamide] | 320 nM
11 | 16.3 nM | 5170 nM | – | – | FC1(F)CC(CNCc2ccc3nc(Cc4cn(-c5cccc6[nH]ncc56)nn4)cn3c2)C1 [Example 337, [(3,3-difluorocyclobutyl)methyl][(2-{[1-(1H-indazol-4-yl)-1H-1,2,3-triazol-4-yl]methyl}imidazo[1,2-a]pyridin-6-yl)methyl]amine] | 3210 nM
